Source: patent US8232305B2, “Anti-microbial compositions” (BASF SE, priority 2006, dated 2012)

How the values were obtained:
[1] = Formulation of stable w/o or o/w emulsions; type: physicochemical; details: comparable concentrations (0.5% w/w) in the w/o and o/w emulsions of Example 10
[2] = tested on: Aspergillus niger; assay: Fungicidal activity according to EN12175; type: cell-based; details: spores about 10^6 cfu/ml, vs water control
Protocol: (§1) Fungicidal activity is tested according to EN12175. A fungal spore suspension with a spore cell count of about 10^6 cfu/ml is contacted with appropriate concentrations of the specific substances and the residual spore cell count determined after incubation times of 30 and 60 minutes at room temperature under continuous stirring. Penicillium funiculosum, Aspergillus niger and Aureobasidium pullulans are tested as important mold strains. The results are given as a log reduction at each incubation time in comparison to a water control.

[3] = tested on: Penicillium funiculosum; assay: Fungicidal activity according to EN12175; type: cell-based; details: spores about 10^6 cfu/ml, vs water control
Protocol: as §1

[4] = tested on: Aureobasidium pullulans; assay: Fungicidal activity according to EN12175; type: cell-based; details: spores about 10^6 cfu/ml, vs water control
Protocol: as §1

[5] = tested on: S. aureus ATCC 6538; assay: Microbicidal activity under conditions similar to a preservative challenge test; type: cell-based; details: 0.5%, inoculum 10^5 cfu/ml
Protocol: (§2) A bacterial suspension with a cell count of about 10^7 cfu/ml is contacted with appropriate concentrations of the specific substances and the residual cell count determined after incubation times of 5 and 30 minutes at room temperature under continuous stirring. Staphylococcus aureus was tested as gram+ and Escherichia coli as gram− organism. The results are given as a log reduction in comparison to a growth control in water.
(§3) The test procedure of Example 7 is used, with an inoculum concentration of 10^5 cfu/ml and incubation times of 48 and 72 hours; figures given as log reduction.

[6] = tested on: E. coli ATCC 10536; assay: as above; type: cell-based; details: 0.5%, inoculum 10^5 cfu/ml
Protocol: as §2, §3

[7] = tested on: C. albicans ATCC 10231; assay: as above; type: cell-based; details: 0.5%, inoculum 10^5 cfu/ml
Protocol: as §2, §3

[8] = tested on: A. niger ATCC 16404; assay: as above; type: cell-based; details: 0.5%, inoculum 10^5 cfu/ml
Protocol: as §2, §3

[9] = tested on: P. aeruginosa ATCC 15442; assay: as above; type: cell-based; details: 0.5%, inoculum 10^5 cfu/ml
Protocol: as §2, §3

[10] = tested on: Staphylococcus aureus; assay: Microbicidal activity according to EN1040; type: cell-based; details: 1000 ppm, room temperature, vs growth control in water
Protocol: as §2

[11] = tested on: Escherichia coli; assay: Microbicidal activity according to EN1040; type: cell-based; details: 1000 ppm, room temperature, vs growth control in water
Protocol: as §2

[12] = tested on: cocci, rods and fungi; details: Pernak et al., 226th ACS National Meeting 2003; cited from earlier work

benzalkonium chloride
stability of w/o or o/w emulsions formulated with the agent [1]: No stable w/o or o/w emulsions could be formulated

CCCCOC(=O)C[n+]1ccn(C)c1.[Br-] [Ex 3]
log reduction A. niger 30 min ([2]; 1%, 30 min): <1 log
log reduction A. niger 1 h ([2]; 1 h): <1 log
log reduction P. funiculosum 30 min ([3]; 1%, 30 min): <1 log
log reduction P. funiculosum 1 h ([3]; 1 h): <1 log
log reduction A. pullulans 30 min ([4]; 1%, 30 min): <1 log
log reduction A. pullulans 1 h ([4]; 1 h): <1 log
log reduction S. aureus ATCC 6538 48 h ([5]; 48 h): >3 log
log reduction S. aureus ATCC 6538 72 h ([5]; 72 h): >3 log
log reduction E. coli ATCC 10536 48 h ([6]; 48 h): >3 log
log reduction E. coli ATCC 10536 72 h ([6]; 72 h): >3 log
log reduction C. albicans ATCC 10231 48 h ([7]; 48 h): 1.4 log
log reduction C. albicans ATCC 10231 72 h ([7]; 72 h): 1.7 log
log reduction A. niger ATCC 16404 48 h ([8]; 48 h): <1 log
log reduction A. niger ATCC 16404 72 h ([8]; 72 h): <1 log
log reduction P. aeruginosa ATCC 15442 48 h ([9]; 48 h): >3 log
log reduction P. aeruginosa ATCC 15442 72 h ([9]; 72 h): >3 log
log reduction S. aureus 5 min. ([10]; 5 min): <1 log
log reduction S. aureus 30 min. ([10]; 30 min): <1 log
log reduction E. coli 5 min. ([11]; 5 min): <1 log
log reduction E. coli 30 min. ([11]; 30 min): <1 log

CCCCCCCCOC[n+]1ccn(C)c1.F[B-](F)(F)F [1-methyl-3-octyloxymethylimidazolium tetrafluoroborate]
effectiveness against cocci, rods and fungi [12]: the most effective of the ionic liquids tested
